Measured values published in ChEMBL document CHEMBL1681750, “Cofactor-type inhibitors of inosine monophosphate dehydrogenase via modular approach: targeting the pyrophosphate binding sub-domain” (Bioorg Med Chem, 2011).

How the values were obtained:
[1] = target: Inosine-5'-monophosphate dehydrogenase 1 (Homo sapiens, UniProt P20839); assay: Inhibition of human IMPDH1 by Spectrophotometry
[2] = test system: K562; assay: Antiproliferative activity against human K562 cells after 72 hrs by MTS assay; assay type: functional, cell-based; conditions: K562, 72 h

Sequence of Inosine-5'-monophosphate dehydrogenase 1 (P20839 whole entry): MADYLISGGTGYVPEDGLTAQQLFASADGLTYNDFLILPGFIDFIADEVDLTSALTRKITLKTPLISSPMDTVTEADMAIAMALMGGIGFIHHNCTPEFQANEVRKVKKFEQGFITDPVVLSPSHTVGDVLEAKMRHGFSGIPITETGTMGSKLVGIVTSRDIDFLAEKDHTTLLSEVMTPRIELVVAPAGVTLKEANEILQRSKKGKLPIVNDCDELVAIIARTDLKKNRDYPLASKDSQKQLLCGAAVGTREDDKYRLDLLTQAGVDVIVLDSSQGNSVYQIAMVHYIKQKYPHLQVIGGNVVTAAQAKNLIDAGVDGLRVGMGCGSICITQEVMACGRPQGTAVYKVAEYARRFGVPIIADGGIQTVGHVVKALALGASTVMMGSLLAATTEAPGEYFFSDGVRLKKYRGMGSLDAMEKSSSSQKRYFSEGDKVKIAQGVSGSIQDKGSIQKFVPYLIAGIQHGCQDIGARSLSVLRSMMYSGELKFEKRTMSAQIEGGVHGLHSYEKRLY

Row | SMILES | Ki [1] [µM] | IC50 [2] [µM]
1 | NC(=O)c1csc([C@@H]2O[C@H](CNS(=O)(=O)CS(=O)(=O)NC[C@@H]3O[C@H](n4cnc5c(N)ncnc54)[C@@H](O)[C@H]3O)[C@@H](O)[C@H]2O)n1 | 23.6 | > 100
2 | NC(=O)c1csc([C@@H]2O[C@H](COP(=O)(O)CC(=O)NC[C@@H]3O[C@H](n4cnc5c(N)ncnc54)[C@@H](O)[C@H]3O)[C@@H](O)[C@H]2O)n1 | 14.2 | > 100

Now those with a lower Ki [1], led by results:

Row | Ki [1] [µM] | IC50 [2] [µM] | SMILES
3 | 0.001 | – | CCc1nc(N)c2ncn([C@H]3O[C@@H](COP(=O)(O)OP(=O)(O)OC[C@H]4O[C@@H](c5nc(C(N)=O)cs5)[C@H](O)[C@@H]4O)[C@H](O)[C@@H]3O)c2n1
4 | 5.55 | > 100 | COc1c(C)c2c(c(O)c1CCOP(=O)(O)CCP(=O)(O)O)C(=O)OC2 [MYCOPHENOLIC ETHYLENEBIS]
5 | 0.013 | 4.7 | CCc1nc(N)c2ncn([C@H]3O[C@@H](COP(=O)(O)C(F)(F)P(=O)(O)OC[C@H]4O[C@@H](c5nc(C(N)=O)cs5)[C@H](O)[C@@H]4O)[C@H](O)[C@@H]3O)c2n1
